Among the test systems are CCRF-CEM leukemia; HCT-116 colon; HCT-15 colon; HT29 colon; NCI-H226 lung; SF-539 CNS; SK-MEL-28 melanoma; SN12C renal; TK-10 renal; SR leukemia.
Experiment in all cases: DTP human tumour cell line panel, 48 h

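Values below derive from 48-hour exposures of cells grown in 96-well plates, with endpoints linearly interpolated between the two concentrations bracketing the appropriate inhibition level. GI50: concentration for 50% inhibition of growth. TGI: concentration producing complete growth inhibition.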

`CCOC(=O)Cc1csc(Nc2nc(O)c(C3=c4ccccc4=NC3=O)s2)n1`: the GI50 (usually the concentration that inhibits growth by half) is 21.1 µM in the assay with CCRF-CEM leukemia; 13.6 µM in the assay on HCT-116 colon; 27.4 µM in the assay with HCT-15 colon; 46 µM with HT29 colon; 21.3 µM in the assay on NCI-H226 lung; 60 µM in the assay with SF-539 CNS. Further, the values for the GI50 in the assay on SK-MEL-28 melanoma, in the assay on SN12C renal and in the assay on TK-10 renal were 45.7 µM, 28 µM and 44.7 µM, respectively. In addition, the TGI (as a rule, the concentration at which net growth stops) is 50.8 µM in the assay with CCRF-CEM leukemia; 26.5 µM in the assay with HCT-116 colon; over 100 µM in the assay with HCT-15 colon; over 100 µM in the assay with HT29 colon; 42.8 µM with NCI-H226 lung; over 100 µM in the assay with SF-539 CNS. For the same compound, the TGI with SK-MEL-28 melanoma is over 100 µM; in the assay on SN12C renal, 98.2 µM; in the assay on TK-10 renal, over 100 µM.

Regarding `Fc1ccc(-c2nn3c(COc4ccccc4Cl)nnc3s2)cc1Oc1ccccc1`, the GI50 in the assay with CCRF-CEM leukemia is over 100 µM; in the assay on HCT-116 colon, 23.2 µM; in the assay on HCT-15 colon it was 38.7 µM; with HT29 colon, 44.9 µM; in the assay on NCI-H226 lung it was 32.7 µM; with SF-539 CNS, 32.2 µM. For the same compound, the GI50 is 54.6 µM in the assay with SK-MEL-28 melanoma, 20.8 µM with SN12C renal and 20.5 µM in the assay on TK-10 renal. In addition, the concentration for total growth inhibition (TGI) with CCRF-CEM leukemia is over 100 µM; with HCT-116 colon, 66.1 µM; with HCT-15 colon, over 100 µM; in the assay on HT29 colon it was over 100 µM; in the assay on NCI-H226 lung, over 100 µM; in the assay with SF-539 CNS, 92.1 µM. The TGI in the assay with SK-MEL-28 melanoma was over 100 µM; with SN12C renal it was 56.6 µM; with TK-10 renal it was 47.1 µM.

Take `Cc1cc(S(=O)(=O)Nc2n[nH]c(-c3ccc(Cl)cc3)c2C#N)c(S)cc1Cl`: the GI50 in the assay on CCRF-CEM leukemia, in the assay with HCT-15 colon, in the assay with HT29 colon, in the assay with NCI-H226 lung, in the assay on SF-539 CNS and in the assay with SK-MEL-28 melanoma was over 100 µM each time. For the same compound, the GI50 with SN12C renal, in the assay with SR leukemia and with TK-10 renal was over 100 µM in each case. The TGI with CCRF-CEM leukemia, in the assay on HCT-15 colon, with HT29 colon, with NCI-H226 lung, in the assay on SF-539 CNS and in the assay on SK-MEL-28 melanoma was over 100 µM throughout. Moreover, the TGI in the assay on SN12C renal, in the assay with SR leukemia and in the assay on TK-10 renal was over 100 µM in each case.

On to `c1ccc2c(CNCCCN3CCN(CCCNCc4cccc5ccccc45)CC3)cccc2c1`, for which the TGI was found to be 3 µM in the assay with CCRF-CEM leukemia; 2.83 µM in the assay on HCT-116 colon; 3.47 µM in the assay with HCT-15 colon; 3.2 µM in the assay on HT29 colon; 7.75 µM in the assay with NCI-H226 lung; 3.01 µM with SF-539 CNS. In addition, the results for the TGI in the assay on SK-MEL-28 melanoma, in the assay with SN12C renal and in the assay on TK-10 renal were 3.06 µM, 13.5 µM and 2.95 µM, respectively.

As to `NC(=S)N/N=C/c1cn(CCCl)c2ccccc12`, the TGI with CCRF-CEM leukemia, with HCT-116 colon, in the assay on HCT-15 colon, with HT29 colon, in the assay on SK-MEL-28 melanoma and in the assay on SN12C renal was over 100 µM each time. Moreover, the TGI in the assay on SR leukemia and in the assay with TK-10 renal was over 100 µM in each case.

On to `CNC(=O)N(CCCC(NC(C)=O)C(=O)NCc1ccccc1)Cc1ccccc1` (stereo not given), for which the TGI with CCRF-CEM leukemia, with HCT-116 colon, with HCT-15 colon, in the assay on HT29 colon, with NCI-H226 lung and with SF-539 CNS was over 100 µM each time. The total growth inhibition concentration (TGI) in the assay with SK-MEL-28 melanoma, in the assay with SN12C renal and with TK-10 renal was over 100 µM throughout.

Consider `Nc1cc2c(c3ccccc13)C(CCl)CN2C(=O)c1cc2cc(NC(=O)c3cc4ccccc4o3)ccc2[nH]1` (stereo not given), for which the GI50 in the assay on HCT-116 colon, in the assay with HCT-15 colon, in the assay on SN12C renal and in the assay on SR leukemia was over 0.11 µM in each case. The TGI in the assay on HCT-116 colon is over 1100 µM; with HCT-15 colon, 1.15 µM; in the assay on SN12C renal it was 1.67 µM; in the assay with SR leukemia, 200 µM.

`COc1cc2c3c(n(CCCNC(C)(C)CO)c(=O)c2cc1OC)-c1cc2c(cc1C3=O)OCO2`: the total growth inhibition concentration (TGI) is 1.58 µM with CCRF-CEM leukemia; 1.73 µM in the assay on HCT-116 colon; 16.6 µM with HCT-15 colon; over 100 µM in the assay on HT29 colon; 8.33 µM in the assay on NCI-H226 lung; 31.3 µM in the assay with SF-539 CNS. In addition, the concentration for total growth inhibition (TGI) was over 65.6 µM in the assay on SK-MEL-28 melanoma, 2.65 µM in the assay on SN12C renal and 38.6 µM with TK-10 renal. For the same compound, the 50% growth inhibitory concentration (GI50) with HCT-116 colon was 0.35 µM; with HCT-15 colon, 2.04 µM; with HT29 colon, 1.08 µM; with NCI-H226 lung, 0.392 µM; in the assay with SF-539 CNS it was 0.356 µM; in the assay on SK-MEL-28 melanoma it was 25.4 µM. Moreover, the GI50 in the assay on SN12C renal was 0.157 µM; in the assay on TK-10 renal, 13 µM.

Regarding `CC1=CC=C2C(C)(C)CC[C@@H]3OC(=O)[C@H]1[C@]23C`, the TGI in the assay with CCRF-CEM leukemia, in the assay on HCT-116 colon, in the assay with HT29 colon, in the assay on NCI-H226 lung, in the assay on SF-539 CNS and with SK-MEL-28 melanoma was over 100 µM throughout. Moreover, the total growth inhibition concentration (TGI) in the assay with SN12C renal, with SR leukemia and in the assay with TK-10 renal was over 100 µM in each case.

For `CC[C@H]1[C@@H](C)C=C[C@@H](C)N1S(=O)(=O)c1ccc(C)cc1`, the TGI with CCRF-CEM leukemia, in the assay with HCT-116 colon, with HCT-15 colon, in the assay with HT29 colon, in the assay on NCI-H226 lung and with SF-539 CNS was over 100 µM throughout. Moreover, the TGI with SK-MEL-28 melanoma, in the assay with SN12C renal and with SR leukemia was over 100 µM in each case.

With `Cc1ccc(S(=O)OC2c3ccccc3Cc3ccccc32)cc1` (stereo not given), the concentration for total growth inhibition (TGI) was 35.8 µM with HCT-116 colon; 44.5 µM in the assay on HCT-15 colon; over 100 µM with HT29 colon; 37.1 µM in the assay on NCI-H226 lung; 40.2 µM in the assay on SF-539 CNS; 33.8 µM in the assay with SK-MEL-28 melanoma. Besides, the values for the concentration for total growth inhibition (TGI) in the assay with SN12C renal, with SR leukemia and in the assay on TK-10 renal were 49.6 µM, 70.8 µM and 64.3 µM, respectively.

In the case of `S=c1sc2sc(=S)sc2s1`, the TGI with CCRF-CEM leukemia is over 100 µM; in the assay with HCT-116 colon it was over 100 µM; in the assay with HCT-15 colon it was over 100 µM; in the assay with HT29 colon, 78.9 µM; in the assay on SF-539 CNS, 57.8 µM; with SN12C renal it was over 100 µM. Further, the total growth inhibition concentration (TGI) with SR leukemia and with TK-10 renal was over 100 µM each time.

These data come from PubChem BioAssay (NCI).
